Measurements as given in publication PMC7934871 (JCI Insight, 2021).

Columns and labels:
[1] = biological target: STAT3 (Homo sapiens, UniProt P40763); experiment: STAT3 protein stability after cycloheximide; assay type: cell-based; design: protein stability of STAT3 in HCT 116 cells; endogenous in cells; host or cells: HCT116; conditions: HCT116, 1 µM peptide pre-incubated 2 hours, 0-2 hours, Western blotting, n = 3
Method: (H) The protein stability of STAT3 in HCT 116 cells was measured at different time points as indicated following cycloheximide (CHX) treatment. The cells were pre-incubated with 1 µM of PS-acet.-STAT3 pept. for 2 hours before adding […] of CHX. The protein level of STAT3 was detected by Western blotting. The quantification was analyzed by protein band intensity od STAT3 and actin by ImageJ software. n= 3 independent experiments. SD is shown. Two-way ANOVA; ns, not significant.
Aftabizadeh et and Li al., Figure S5

[2] = biological target: T1, exportin 7 (Homo sapiens, UniProt Q9UIA9); experiment: Immunoprecipitation of FAM-labeled peptide and Western blotting, exportin 7; assay type: binding; conditions: anti-FITC (FAM) immunoprecipitation, Western blotting, U251 cells
T1 construct: endogenous in cells; host or cells: U251
Method: Data are representative of 3 independent experiments (n = 3).
Whole cell lysates or tissue homogenates were prepared by using RIPA lysis buffer (50 mM Tris at pH 7.4, 150 mM NaCl, 1 mM EDTA, 0.5% NP-40, 1 mM NaF, 15% glycerol, and 20 mM β-glycerophosphate). A protease inhibitor cocktail (Mini Protease Inhibitor Cocktail; Roche) and a tyrosine phosphatase inhibitor, sodium orthovanadate (Na3VO4, 1 mM), were added freshly to the lysis buffer. Protein amounts were determined by BCA using a Thermo Fisher Scientific kit. Normalized protein amounts were subjected to an SDS-PAGE and transferred onto a nitrocellulose membrane for Western blotting. Proteins were visualized with a chemiluminescent detection kit (Pierce, Thermo Fisher Scientific). The protein levels for STAT1 (sc-346, E-23), STAT3 (sc-482, C-20), STAT5 (sc-74442, A-9), Crm1 (exportin 1) (sc-5595, H-300), CAS (exportin 2) (sc-271537, H-2), exportin 5 (sc-66885, H-300), and exportin 7 (sc-98639, H-82) were determined using antibodies from Santa Cruz Biotechnology Inc. Anti–exportin 3 (exportin T, 630622, LOS1 05-1525), anti–exportin 4 (3499-1), and anti–exportin 6 (11408-1-AP) were from MilliporeSigma, Epitomics, and Proteintech, respectively. […]

[3] = biological target: T2, STAT1 (Homo sapiens, UniProt P42224); experiment: Immunoprecipitation and Western blotting, STAT1; assay type: binding; conditions: immunoprecipitation, Western blotting, U251 cells
T2 construct: endogenous in cells; host or cells: U251
Description: Figure 2 PS-acet.-STAT3-peptide specifically binds STAT3 in the nucleus. (A) Penetration of PS-acet.-STAT3 peptide and its colocalization with STAT3 protein in U251 cells are confirmed by confocal microscopy. Scale bars: 50 μm. Insets: original magnification, ×40. (B) PS-acet.-STAT3 peptide specifically binds to STAT3 protein, not STAT1 and STAT5 proteins, shown in U251 cells by immunoprecipitation followed by Western blotting (left panel). Expression of total STAT1, STAT3, and STAT5 was confirmed by Western blotting in U251 cells (input protein level, right panel).
Whole cell lysates or tissue homogenates were prepared by using RIPA lysis buffer (50 mM Tris at pH 7.4, 150 mM NaCl, 1 mM EDTA, 0.5% NP-40, 1 mM NaF, 15% glycerol, and 20 mM β-glycerophosphate). […] Protein amounts were determined by BCA using a Thermo Fisher Scientific kit. […] The protein levels for STAT1 (sc-346, E-23), STAT3 (sc-482, C-20), STAT5 (sc-74442, A-9), Crm1 (exportin 1) (sc-5595, H-300), CAS (exportin 2) (sc-271537, H-2), exportin 5 (sc-66885, H-300), and exportin 7 (sc-98639, H-82) were determined using antibodies from Santa Cruz Biotechnology Inc. Anti–exportin 3 (exportin T, 630622, LOS1 05-1525), anti–exportin 4 (3499-1), and anti–exportin 6 (11408-1-AP) were from MilliporeSigma, Epitomics, and Proteintech, respectively. […]

T2 sequence (P42224 whole entry): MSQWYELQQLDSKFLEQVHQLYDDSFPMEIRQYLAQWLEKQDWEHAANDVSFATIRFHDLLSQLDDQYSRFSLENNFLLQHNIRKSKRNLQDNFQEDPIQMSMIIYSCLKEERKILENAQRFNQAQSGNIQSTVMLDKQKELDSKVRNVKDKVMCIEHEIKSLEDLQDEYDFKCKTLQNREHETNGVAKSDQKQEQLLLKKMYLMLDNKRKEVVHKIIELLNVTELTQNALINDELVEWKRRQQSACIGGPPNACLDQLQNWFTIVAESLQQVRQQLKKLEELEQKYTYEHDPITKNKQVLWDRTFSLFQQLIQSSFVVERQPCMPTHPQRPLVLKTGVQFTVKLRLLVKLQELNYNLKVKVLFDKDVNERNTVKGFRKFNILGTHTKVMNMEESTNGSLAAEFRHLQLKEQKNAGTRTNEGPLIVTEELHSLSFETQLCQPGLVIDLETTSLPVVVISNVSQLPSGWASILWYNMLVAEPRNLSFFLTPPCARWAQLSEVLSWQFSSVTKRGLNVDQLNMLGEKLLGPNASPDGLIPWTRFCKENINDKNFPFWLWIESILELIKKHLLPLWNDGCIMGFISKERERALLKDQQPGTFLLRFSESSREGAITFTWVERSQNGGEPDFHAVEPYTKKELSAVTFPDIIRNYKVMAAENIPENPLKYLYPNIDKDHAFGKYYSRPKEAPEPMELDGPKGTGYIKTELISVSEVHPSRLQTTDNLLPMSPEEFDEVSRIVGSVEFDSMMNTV
T1 sequence (Q9UIA9 whole entry): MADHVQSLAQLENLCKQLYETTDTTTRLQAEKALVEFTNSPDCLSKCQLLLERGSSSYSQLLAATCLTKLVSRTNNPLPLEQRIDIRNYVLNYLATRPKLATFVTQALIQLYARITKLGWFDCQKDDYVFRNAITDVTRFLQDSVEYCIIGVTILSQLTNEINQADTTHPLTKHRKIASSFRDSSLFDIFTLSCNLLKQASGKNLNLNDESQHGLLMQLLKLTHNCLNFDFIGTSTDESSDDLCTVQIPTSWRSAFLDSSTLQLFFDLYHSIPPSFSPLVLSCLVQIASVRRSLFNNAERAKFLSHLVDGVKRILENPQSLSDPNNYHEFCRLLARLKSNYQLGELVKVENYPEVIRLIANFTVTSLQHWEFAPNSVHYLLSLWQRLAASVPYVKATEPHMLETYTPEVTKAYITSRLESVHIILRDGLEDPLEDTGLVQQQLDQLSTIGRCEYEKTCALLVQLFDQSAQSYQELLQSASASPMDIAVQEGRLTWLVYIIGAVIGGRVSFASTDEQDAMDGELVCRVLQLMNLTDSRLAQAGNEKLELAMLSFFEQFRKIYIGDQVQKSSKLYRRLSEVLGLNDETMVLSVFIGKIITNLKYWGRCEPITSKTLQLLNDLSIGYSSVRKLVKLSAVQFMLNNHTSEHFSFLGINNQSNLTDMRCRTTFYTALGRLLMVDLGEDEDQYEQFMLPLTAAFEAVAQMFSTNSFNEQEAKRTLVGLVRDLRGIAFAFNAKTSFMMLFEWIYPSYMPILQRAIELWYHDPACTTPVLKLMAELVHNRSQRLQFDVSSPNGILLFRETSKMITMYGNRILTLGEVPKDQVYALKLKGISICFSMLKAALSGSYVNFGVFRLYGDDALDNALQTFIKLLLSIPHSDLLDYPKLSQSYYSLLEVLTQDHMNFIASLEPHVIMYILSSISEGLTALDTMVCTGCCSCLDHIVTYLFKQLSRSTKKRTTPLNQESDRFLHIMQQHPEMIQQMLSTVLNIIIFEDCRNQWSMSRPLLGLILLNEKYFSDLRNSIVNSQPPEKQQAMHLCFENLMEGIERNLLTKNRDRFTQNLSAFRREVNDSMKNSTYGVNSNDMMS
Chain of STAT3 (P40763 whole entry): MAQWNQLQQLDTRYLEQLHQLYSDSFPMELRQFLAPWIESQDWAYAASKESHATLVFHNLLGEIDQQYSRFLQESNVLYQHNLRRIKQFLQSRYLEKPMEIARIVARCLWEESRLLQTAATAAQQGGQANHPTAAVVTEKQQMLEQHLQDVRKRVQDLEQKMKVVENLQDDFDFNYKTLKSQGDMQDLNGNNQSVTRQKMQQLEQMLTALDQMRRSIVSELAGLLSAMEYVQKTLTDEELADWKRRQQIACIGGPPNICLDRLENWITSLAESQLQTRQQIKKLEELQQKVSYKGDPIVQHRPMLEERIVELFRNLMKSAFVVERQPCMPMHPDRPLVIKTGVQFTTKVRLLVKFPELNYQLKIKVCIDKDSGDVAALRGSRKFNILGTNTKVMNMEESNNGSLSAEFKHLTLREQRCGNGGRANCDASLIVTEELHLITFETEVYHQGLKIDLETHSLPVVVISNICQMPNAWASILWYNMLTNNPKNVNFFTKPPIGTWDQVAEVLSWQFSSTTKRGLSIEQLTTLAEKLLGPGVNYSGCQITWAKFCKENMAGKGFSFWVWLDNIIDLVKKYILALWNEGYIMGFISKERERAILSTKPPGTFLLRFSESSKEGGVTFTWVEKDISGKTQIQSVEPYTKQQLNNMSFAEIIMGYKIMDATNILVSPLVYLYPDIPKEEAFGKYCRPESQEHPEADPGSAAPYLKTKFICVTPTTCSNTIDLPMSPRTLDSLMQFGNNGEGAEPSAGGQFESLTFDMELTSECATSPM

Substance: PDIPKEEAFGK685(Ac)YCRPESQEHPC-linker-T*C*C*A*T*G*A*G*C*T*T*C*C*T*G*A*T*G*C*T [PS-acet.-STAT3 peptide]
- protein stability of STAT3 [1]: not affected
- binding to exportin 7 [2]: bound
- binding to STAT1 protein [3]: not
